System: APJ-expressing primary allantoic cultures
Assay: Allantoic explants treated with ligands, digital droplet PCR of gene expression
Type: cell-based, mouse
Conditions: 2.5 μM, 12 hours, ddPCR, ELA versus APLN
Description: Allantoic explants were microdissected from 4-5 somite stage embryos on the morning of the 8th day of conception in dissection medium (DMEM+Hepes+7.5% FCS), and cultured in DMEM+NaHCO3+50% rat serum, on poly-L-lysine coated microwells (Ibidi). […] 12 hours later, the explants were harvested by direct lysis and RNA extracted with the Nucleospin RNA XS kit (Machery Nagel). cDNA was made using the SMARTer® Pico PCR cDNA Synthesis Kit (Clontech) and gene quantitation was performed using digital droplet PCR (Biorad) with EvaGreen and PrimeTime probes listed below: […]

APLN: APLN-36 (Sigma); Apelin, the alternate ligand for APJ (LVQPRGSRNGPGPWQGGRRKFRRQRPRLSHKGPMPF; Apelin-36; UniProt Q9ULZ1 42-77, looked up)
expression of hypoxic response genes (Foxoa3 and Hif3α): opposite effects | expression of Esm1: opposite effects
